For the assay, the system named is sodium channel in hTRPV1-N1E115 cells. As to the kind of experiment: FLIPR membrane potential assay of sodium channel response in hTRPV1-N1E115 cells, with (47° C.) or without (25° C.) heat activation of hTRPV1. In kind it is cell-based. Conditions: for hTRPV1-N1E Nav 0.1 mM (% inhibition) 25° C. / hTRPV1-N1E Nav 1 mM (% inhibition) 25° C.: 25° C. (no heat activation of hTRPV1); for hTRPV1-N1E Nav 0.1 mM (% inhibition) 47° C. / hTRPV1-N1E Nav 1 mM (% inhibition) 47° C.: 47° C. (heat activation of hTRPV1); for IC50: class symbols, read-out: hTRPV1-N1E IC50 (μM) 47° C. An excerpt:
In one embodiment, a modified FLIPR® (Fluorometric Imaging Plate Reader) based assay system was developed which is capable of discriminating between non-specific versus hTRPV1-mediated entry of test compounds. Advantageously, the assay system utilizes heat activated opening of hTRPV1 channels followed by an assessment of internal sodium channel block. The assay allows a permanently charged compound to selectively enter through opened hTRPV1 channels and that compound's potency in inhibiting sodium channels from the cytoplasm side of the same cell can be assessed and quantified.
The assay is readily performed in multi-well assay plates into which cells in growth media are added and incubated under conditions which permit the formation of a confluent monolayer over a period of hours prior to the start of the assay. Conventional culture media and conditions may be utilized. Duplicate cell assay plates are prepared for each experiment.
The spent media from the cell seeded plates is removed on the day of the assay and replaced with Membrane potential Dye-Blue (Molecular Devices). The dye was prepared in assay buffer following manufacturer's instructions. The dye-loaded plate is incubated at room temperature (about 25° C.) for about 30 minutes in order to pre-load the cells with dye. Optionally, the cells may be loaded with the dye simultaneously with adding the test compounds.
The test compounds are diluted in the Assay Buffer and added to each well of a specific 384-well ‘compound plate’, which serves as a source plate for compound addition using the FLIPR® platform. The concentration of compounds in the compound-plate was adjusted to achieve the desired final concentration when added to the cells in the ‘cell-plate’. After completion of the dye incubation period, the dye loaded cell-plates and the compound source plates are inserted into the FLIPR® Tetra™ device with a 384 FLIPR® tip box (Molecular Devices, Inc.) according to manufacturer's instructions. The compounds are robotically added to the dye loaded cell-plates using software integral to the FLIPR® Tetra™ instrument.
Immediately following compound addition, hTRPV1 is activated, in one of the duplicate cell plates, by heating. Specifically, entire multi-well plate containing the compound-cells mixture is incubated at 47° C. for 10 minutes, after which they are returned to room temperature (about 25° C.) for a further 30 minutes. Heat activation of hTRPV1 was omitted from the replicate cell plate which was simply maintained at room temperature for the entire 40 minutes.
A membrane potential response is elicited in the dye- and compound-loaded cells by the addition of veratridine which is a known sodium channel ‘agonist’. As illustrated in an example herein, an agonist plate containing veratridine (Sigma) is prepared in advance and is inserted into suitable devices such as, e.g., the FLIPR® TETRA® device for a “2nd addition” as instructed by the manufacturer. The concentration of veratridine in the ‘agonist plate’ was adjusted to achieve a final concentration of 100 μM when added to the cells in the cell-plate. Final concentrations of veratridine greater or lesser than 100 μM may also be used but the signal measured by the FLIPR®^Tetra™ device or another suitable device may vary accordingly.
The exposure of the cells in the cell-plate to veratridine induces sodium channels in the cells to open and the resulting ion flux produces a membrane potential depolarization that is detected as a fluorescence signal by the FLIPR® ^Tetra™ Device. The activity of test compounds is determined by their ability to attenuate the veratridine-induced fluorescence signal, the most promising compounds are those that show an enhanced activity in the heat-activated cell plate over the non-heat-activated cell plate. […]

For the compound `[Br-].c1ccc(N(CCC2CCCC[N+]23CCCC3)C2Cc3ccccc3C2)cc1` (stereo not shown) [Example 20, 6-[2-((Indan-2-yl)(phenyl)amino)ethyl]-5-azoniaspiro[4.5]decane bromide], the “hTRPV1-N1E Nav 1 mM (% inhibition) 25° C.” value was 0 (N = 3) % and the “hTRPV1-N1E Nav 1 mM (% inhibition) 47° C.” value is recorded as 48.9 (N = 3) %. Besides, under “0.1 mM”, the “hTRPV1-N1E Nav 0.1 mM (% inhibition) 25° C.” value stood at 11.2% and the “hTRPV1-N1E Nav 0.1 mM (% inhibition) 47° C.” value is reported as 94.8 (N = 3) %. The IC50 (47° C.) is 10 to 100 µM.

As for `CC[N+]1(CC)CCCCC1CCN(c1ccccc1C)C1Cc2ccccc2C1.[I-]` (stereo not shown) [Example 25, 1,1-Diethyl-2-[2-((indan-2-yl)(2-methylphenyl)amino)ethyl]piperidinium iodide], the “hTRPV1-N1E Nav 1 mM (% inhibition) 25° C.” value is reported as “Insoluble” and the “hTRPV1-N1E Nav 1 mM (% inhibition) 47° C.” value is “Insoluble”. In addition, where the note is “0.1 mM”, the “hTRPV1-N1E Nav 0.1 mM (% inhibition) 25° C.” value was determined as 26.4% and the “hTRPV1-N1E Nav 0.1 mM (% inhibition) 47° C.” value is listed as 89.6 (N = 2) %. The concentration for half-maximal inhibition (IC50) (47° C.) was in the range of 1 to 10 µM.

For `C[N+]1(C)CCCCC1CCN(c1ncccn1)C1Cc2ccccc2C1.[I-]` (stereo not shown) [Example 38, 1,1-dimethyl-2-[2-((indan-2-yl)(pyrimidine-2-yl)amino)ethyl]piperidinium iodide], the “hTRPV1-N1E Nav 1 mM (% inhibition) 25° C.” value is listed as 46.6 (N = 2) % and the “hTRPV1-N1E Nav 1 mM (% inhibition) 47° C.” value was 70.4 (N = 2) %. Moreover, under “0.1 mM”, the “hTRPV1-N1E Nav 0.1 mM (% inhibition) 25° C.” value amounted to 25.9% and the “hTRPV1-N1E Nav 0.1 mM (% inhibition) 47° C.” value is on record as 37.5 (N = 2) %.

Turning to `C[N+]1(C)CCCCC1CCN(c1cccc(F)c1)C1Cc2ccccc2C1.[I-]` (stereo not shown) [Example 14, 1,1-dimethyl-2-[2-((3-fluorophenyl)(indan-2-yl)amino)ethyl]piperidinium iodide], the “hTRPV1-N1E Nav 1 mM (% inhibition) 25° C.” value is listed as 3.8 (N = 3) % and the “hTRPV1-N1E Nav 1 mM (% inhibition) 47° C.” value was 25.3 (N = 3) %. Besides, under “0.1 mM”, the “hTRPV1-N1E Nav 0.1 mM (% inhibition) 25° C.” value is 6.3% and the “hTRPV1-N1E Nav 0.1 mM (% inhibition) 47° C.” value is on record as 76.7 (N = 3) %. Further, the IC50 (47° C.) fell in the range of 10 to 100 µM.

As to `Cc1ccccc1N(CCC1CC[N+](C)(C)CC1)C1Cc2ccccc2C1.[I-]` [Example 45, 1,1-Dimethyl-4-[2-((indan-2-yl)(2-methylphenyl)amino)ethyl]piperidinium iodide], under “0.1 mM”, the “hTRPV1-N1E Nav 0.1 mM (% inhibition) 25° C.” value was found to be 23.1% and the “hTRPV1-N1E Nav 0.1 mM (% inhibition) 47° C.” value is 83.3 (N = 2) %.

With `C[N+]1(C)CCCC[C@@H]1CN(c1ccccc1)C1Cc2ccccc2C1` [Example 33, (R)-1,1-Dimethyl-2-[((indan-2-yl)(phenyl)amino)methyl]piperidinium iodide], the half-maximal inhibitory concentration (IC50) (47° C.) was 10 to 100 µM.

Turning to `Cc1cccc(N(CCC2CCCC[N+]2(C)C)C2Cc3ccccc3C2)n1.[I-]` (stereo not shown) [Example 47, 1,1-Dimethyl-2-[2-((indan-2-yl)(6-methylpyridine-2-yl)amino)ethyl]piperidinium iodide], where the note is “0.1 mM”, the “hTRPV1-N1E Nav 0.1 mM (% inhibition) 25° C.” value amounted to 30.7% and the “hTRPV1-N1E Nav 0.1 mM (% inhibition) 47° C.” value is 79.5 (N = 2) %. The IC50 (47° C.) is 10 to 100 µM.

Turning to `CC[N+]1(CC)CCCCC1CCN(c1cccc(C)c1)C1Cc2ccccc2C1.[I-]` (stereo not shown) [Example 21, 1,1-Diethyl-2-[2-((indan-2-yl)(3-methylphenyl)amino)ethyl]piperidinium iodide], the “hTRPV1-N1E Nav 1 mM (% inhibition) 25° C.” value is 58.2 (N = 3) % and the “hTRPV1-N1E Nav 1 mM (% inhibition) 47° C.” value was 64.3 (N = 3) %. Also, for the setting “0.1 mM”, the “hTRPV1-N1E Nav 0.1 mM (% inhibition) 25° C.” value worked out at 44.7% and the “hTRPV1-N1E Nav 0.1 mM (% inhibition) 47° C.” value is 80.2 (N = 3) %. Further, for the setting “47° C.”, the IC50 fell in the range of 10 to 100 µM.

On to `Cc1ccccc1N(CC[C@@H]1CCCC[N+]1(C)C)C1Cc2ccccc2C1` [Example 34, (S)-1,1-Dimethyl-2-[2-((indan-2-yl)(2-methylphenyl)amino)ethyl]piperidinium iodide], for which the half-maximal inhibitory concentration (IC50) (47° C.) is 10 to 100 µM.

As to `C[N+]1(C)CCCCC1CCN(c1ccc2c(c1)OCCO2)C1Cc2ccccc2C1.[I-]` (stereo not shown) [Example 42, 1,1-dimethyl-2-[2-((2,3-dihydrobenzo[b][1,4]dioxin-6-yl)(indan-2-yl)amino)ethyl]piperidinium iodide], where the note is “0.1 mM”, the “hTRPV1-N1E Nav 0.1 mM (% inhibition) 25° C.” value is on record as 0% and the “hTRPV1-N1E Nav 0.1 mM (% inhibition) 47° C.” value is recorded as 64.9 (N = 2) %.

For `CC[N+]1(CC)CCCCC1CCN(c1ccc(F)cc1)C1Cc2ccccc2C1.[I-]` (stereo not shown) [Example 18, 1,1-diethyl-2-[2-((4-fluorophenyl)(indan-2-yl)amino)ethyl]piperidinium iodide], the “hTRPV1-N1E Nav 1 mM (% inhibition) 25° C.” value is recorded as 0 (N = 3) % and the “hTRPV1-N1E Nav 1 mM (% inhibition) 47° C.” value is reported as 38.2 (N = 3) %. Under “0.1 mM”, the “hTRPV1-N1E Nav 0.1 mM (% inhibition) 25° C.” value is reported as 0% and the “hTRPV1-N1E Nav 0.1 mM (% inhibition) 47° C.” value is reported as 86.9 (N = 3) %. In addition, the half-maximal inhibitory concentration (IC50) (47° C.) is 10 to 100 µM.

With `Cc1cccc(N(CC2CCCC[N+]2(C)C)C2Cc3ccccc3C2)c1.[I-]` (stereo not shown) [Example 29, 1,1-Dimethyl-2-[((indan-2-yl)(3-methylphenyl)amino)methyl]piperidinium iodide], the “hTRPV1-N1E Nav 1 mM (% inhibition) 25° C.” value was 64.6 (N = 2) % and the “hTRPV1-N1E Nav 1 mM (% inhibition) 47° C.” value was 75.3 (N = 2) %. Under “0.1 mM”, the “hTRPV1-N1E Nav 0.1 mM (% inhibition) 25° C.” value is 68.9% and the “hTRPV1-N1E Nav 0.1 mM (% inhibition) 47° C.” value is reported as 82.9 (N = 2) %.

With `Cc1ccc(N(CCC2CCCC[N+]2(C)C)C2Cc3ccccc3C2)cc1.[I-]` (stereo not shown) [Example 22, 1,1-Dimethyl-2-[2-((indan-2-yl)(4-methylphenyl)amino)ethyl]piperidinium iodide], the “hTRPV1-N1E Nav 1 mM (% inhibition) 25° C.” value is 48 (N = 2) % and the “hTRPV1-N1E Nav 1 mM (% inhibition) 47° C.” value is recorded as 69.9 (N = 2) %. Further, where the note is “0.1 mM”, the “hTRPV1-N1E Nav 0.1 mM (% inhibition) 25° C.” value stood at 8.7% and the “hTRPV1-N1E Nav 0.1 mM (% inhibition) 47° C.” value was 62.7 (N = 2) %. Where the note is “47° C.”, the half-inhibitory concentration (IC50) fell in the range of 10 to 100 µM.

Regarding `CC[N+]1(CC)CCCCC1CCN(c1cccc(F)c1)C1Cc2ccccc2C1.[I-]` (stereo not shown) [Example 17, 1,1-diethyl-2-[2-((3-fluorophenyl)(indan-2-yl)amino)ethyl]piperidinium iodide], the “hTRPV1-N1E Nav 1 mM (% inhibition) 25° C.” value is 6.1 (N = 3) % and the “hTRPV1-N1E Nav 1 mM (% inhibition) 47° C.” value was 28.9 (N = 3) %. Where the note is “0.1 mM”, the “hTRPV1-N1E Nav 0.1 mM (% inhibition) 25° C.” value was determined as 1% and the “hTRPV1-N1E Nav 0.1 mM (% inhibition) 47° C.” value was 86.1 (N = 3) %. Moreover, the 50% inhibitory concentration (IC50) (47° C.) fell in the range of 10 to 100 µM.

On to `CCC[N+]1(CCC)CCCC[C@H]1CCN(c1ccccc1)C1Cc2ccccc2C1.[I-]` [Example 1, (S)-1,1-dipropyl-2-[2-((indan-2-yl)(phenyl)amino)ethyl]piperidinium iodide], for which the “hTRPV1-N1E Nav 0.1 mM (% inhibition) 25° C., DMSO” value (0.1 mM, DMSO, 25° C.) was determined as 56%. Where the note is “0.1 mM, DMSO, 47° C.”, the “hTRPV1-N1E Nav 0.1 mM (% inhibition) 47° C., DMSO” value is 87 (N = 4, DMSO) %.

For `Cc1ccccc1N(CCC1CC[N+](C)(C)CC1)C1Cc2ccccc2C1.[Br-]` [Example 40, 1,1-dimethyl-4-[2-((indan-2-yl)(2-methylphenyl)amino)ethyl]piperidinium bromide], the “hTRPV1-N1E Nav 0.1 mM (% inhibition) 25° C.” value (0.1 mM) amounted to 34.3%. The IC50 (47° C.) lay within 10 to 100 µM.

On to `Cc1cccc(N(CCC2CCCC[N+]2(C)C)C2Cc3ccccc3C2)n1.[Br-]` (stereo not shown) [Example 48, 1,1-Dimethyl-2-[2-((indan-2-yl)(6-methylpyridine-2-yl)amino)ethyl]piperidinium bromide], for which, for the setting “0.1 mM”, the “hTRPV1-N1E Nav 0.1 mM (% inhibition) 25° C.” value came to 29.6%. For the same compound, the IC50 (47° C.) was in the range of 10 to 100 µM.

`CC[N+]1(CC)CCCC[C@H]1CCN(c1ccccc1)C1Cc2ccccc2C1.[Br-]` [Example 49, (S)-1,1-Diethyl-2-[2-((indan-2-yl)(phenyl)amino)ethyl]piperidinium bromide]: under “0.1 mM”, the “hTRPV1-N1E Nav 0.1 mM (% inhibition) 25° C.” value was 22.2%. The 50% inhibitory concentration (IC50) (47° C.) is 10 to 100 µM.

Regarding `Cc1ccccc1N(CC[C@H]1CCCC[N+]1(C)C)C1Cc2ccccc2C1` [Example 51, (R)-1,1-Dimethyl-2-[2-((indan-2-yl)(2-methylphenyl)amino)ethyl]piperidinium chloride], the 50% inhibitory concentration (IC50) (47° C.) was 1 to 10 µM.

Usually IC50 stands for the concentration needed to halve the response being measured.
